≈ marks a conversion by molar mass, not a printed value.
Columns and labels:
Candida albicans = assay: Antifungal activity against Candida albicans ATCC 10231; assay type: functional
Nakaseomyces glabratus = assay: Antifungal activity against Candida glabrata; assay type: functional

| Molecule | MIC (Candida albicans) [µg/mL] | MIC (Nakaseomyces glabratus) [µg/mL] |
| --- | --- | --- |
| NYSTATIN | 1 | – |
| CCCCCCCCC[C@@H](O)[C@H](C)N | 0.7 (≈ 3.48 µM) | 30 (≈ 149 µM) |
| CC(=O)N1CCN(c2ccc(OCC3COC(Cn4ccnc4)(c4ccc(Cl)cc4Cl)O3)cc2)CC1 (centres undefined) [KETOCONAZOLE] | 0.01 (≈ 0.0188 µM) | – |
